Measurements from patent US10172835B2, “Anticancer agent composition” (J-Pharma Co., Ltd., priority 2014, dated 2019).
Counter-ions that a name gives are not always drawn.

Key:
[1] = tested on: KO99L cells; experiment: Combination studies with COMPOUND-JP, WST-1 viability, Chou-Talalay combination index; assay type: cell-based, murine; conditions: 48 h, suboptimal concentrations, in combination with COMPOUND-JP
Procedure: Combinations were analyzed by ANOVA followed by Tukey's Multiple comparison test to determine significance between experimental groups. The synergism between drugs was analyzed using the Chou-Talalay method. […] P-value <0.05 was accepted as statistically significant (*:p<0.05; **:p<0.01; ***:p<0.001). Analyses were performed using the GraphPAd Prism 3.0 software.

[2] = tested on: KO99L cells; experiment: Annexin-V / DAPI apoptosis assay, KO99L cells; assay type: cell-based, murine; conditions: 20.0 μM
Procedure: Apoptosis assessment was performed by measuring phosphatidyl-serine membrane redistribution via annexin-V-FITC (Invitrogen). Cells (5.0±0.1×10^5 per well; 2.0 mL) were incubated with effectors, and re-suspended in staining solution (110 μL; Annexin-V ( 1/10) and incubated in the dark (15 min, RT). […] Basal apoptosis and necrosis were determined on control untreated cells.

[3] = tested on: HT-29 cell derived from human large intestine cancer; experiment: Tumor growth in nude mouse inoculated subcutaneously with HT-29 cells; assay type: in vivo
Procedure: A HT-29 cell was inoculated subcutaneously into a mouse, and the transition of the size of the tumor lump was measured with time from the day on which the tumor has grown to a certain size, when each of COM-JP and 5-FU was used alone or in combination.

[4] = tested on: mTORC1 / Akt activation; experiment: Western blot of S6RP, 4EBP1 and Akt phosphorylation, KO99L cells; assay type: cell-based, murine; conditions: 2.0-24 h; COMPOUND-JP 10.0 μM; MK-2206 5.0 μM; KU0063794 5.0 μM; rapamycin 10.0 nM; L-Asp, Erw 2.5 units/ml; velcade at 24 h
[5] = tested on: c-myc; experiment: Western blot of c-myc levels, KO99L cells; assay type: cell-based, murine; conditions: COMPOUND-JP 10.0 μM 2.0-24 h; Velcade 8 nM 24 h; KU0063794 10.0 μM; MK-2206 10.0 μM; rapamycin 100 nM
Procedure: (§1) Cell extracts were prepared using a cell lysis buffer (50 mM HEPES, pH 7.4, 150 mM NaCl, 20 mM EDTA, 100 mM NaF, 10 mM Na3VO4, 0.5% nonyl phenoxypolyethoxylethanol (NP40) supplemented with a cocktail of protease inhibitors. After SDS-PAGE separation and transfer to nitrocellulose immunoblotting was performed using the following antibodies against: Akt (Cell Signaling Technologies, #9272), CHOP (#2895), cleaved caspase 3 (#9664), c-Myc (#9402), eIF2a (#9721), 4EBP1 (#9644), LC3A/B (#12741), PARP (#9542), pJnk (T183/Y185) (#9251), pSer235-236-S6RP (#4856), pSer473-Akt (#9271), pSer65-4EBP1 (#9451) and S6RP (#2217); Bax (Sigma-Aldrich, B8429); PUMA (Abcam, ab54288); Bak (Millipore, 06536); ATF4 (Santa Cruz Biotechnologies, sc200), GADD34 (sc8327), Hsp60 (sc-1722), Hsp90 (sc-13119) and XBP1 (sc-7160); ATF6 (Imgenex, IMG-273).

[6] = tested on: CHOP; experiment: Western blot of CHOP protein levels, KO99L cells; assay type: cell-based, murine; conditions: for CHOP induction: FIG. 5B, COMPOUND-JP 5.0 and 10.0 μM, L-Asp 2.5 units/ml, rapamycin 10.0 nM, MK-2206 10.0 μM, KU0063794 10.0 μM; for CHOP expression, time course: FIG. 5A, COMPOUND-JP 10.0 μM, L-Asp, Erw 2.5 units/ml, 2.0-24 h
Procedure: as §1

[7] = tested on: 44As3-11 cell derived from human scirrhous stomach cancer; experiment: MTT, single agents and combination with COM-JP, 44As3-11 cells; assay type: cell-based
Procedure: (§2) Two kind of cancer cells of a 44As3-11 cell derived from human scirrhous stomach cancer and a Panc-1 cell derived from human pancreatic cancer were cultured in the presence or absence of COM-JP, to which GEM and Pac was added on day 2, and the resultant mixture was continued to be cultured for 2 hours. Subsequently, the medium was replaced with a new medium, and the culture was performed in the presence or absence of COM-JP for 2 days more. Finally, the cells were collected, and the quantity of survival activity of the cells was determined by a MTT method. In each experiment, three cases of the group under the same conditions were measured, and the average value and the standard error, and the p-value of significance test were shown in the diagram.

[8] = tested on: Panc-1 cell derived from human pancreatic cancer; experiment: MTT, single agents and combination with COM-JP, Panc-1 cells; assay type: cell-based
Procedure: as §2

[9] = tested on: KO99L cells (tPTEN−/− tumor cell line); experiment: WST-1 cell viability assay on KO99L cells; assay type: cell-based, murine; conditions: Mus musculus, KO99L cells, 48 h
Procedure: Two different assays were employed: i) In a 96-well plate format, cells (4.0±0.1×10^4 per well; 100 μL) were incubated with effectors (48 h, 37° C.; n=4 per experiment) and then WST-1 reagent (10 μL; Roche Diagnostics) added to each well of 96-well plates, incubated, and the formazan production was measured at 490 nm; and ii) cells (2.0±0.1×10^4 per well; 100 μL) were incubated with effectors (48 h, 37° C.; n=4 per experiment) and then bromodeoxyuridine reagent (10 μL/well; Roche Diagnostics) was added to each well and incubated (8 h, 37° C.). The cells were then fixed, denatured and incubated with anti-BrdU-conjugated with peroxidase (POD) antibody (100 μL/well). Colorimetric substrate (TMB: tetramethyl-benzidine; 100 μL/well) was added and BrdU incorporation quantified via optical density measurement (450 nm) which corresponds to DNA synthesis and proliferating cells.

[10] = tested on: HT-29 cell derived from human large intestine cancer; experiment: Tumor growth in nude mouse SOI model (HT-29 grafted onto wall of large intestine); assay type: in vivo
From the text: […] was expressed in a HT-29 cell derived from human large intestine cancer, and which was grafted onto the wall of large intestine of a mouse to produce a metamouse. According to this, the quantity of the size of the tumor could be determined with time with emission intensity. In FIG. 16, the size of tumor in each treatment group was shown with a bar graph. Group 1 is a control group, Groups 2 to 4 are a group in which COM-JP was intraperitoneally administered alone at 3.1, 12.5, and 50 mg/kg weight/day every day for 4 weeks, Group 5 is a group in which CDDP was intraperitoneally administered alone at 2.5 mg/kg/day three times on day 0, day 6, and day 13, Groups 6 to 8 are a group in which Groups 2 to 4 and Group 5 were combined to be administered in combination, and Group 9 is a group in which COM-JP was orally administered at 300 mg/kg/day every day for 4 weeks.

COc1cccc2c1C(=O)c1c(O)c3c(c(O)c1C2=O)C[C@@](O)(C(=O)CO)C[C@@H]3O[C@H]1C[C@H](N)[C@H](O)[C@H](C)O1 [doxorubicin, doxorubicin hydrochloride]
combination effect with COMPOUND-JP on metabolic activity/cell survival (Combination Index) [1]: synergy

CC(C)[C@H](NC(=O)c1ccc2ccccc2n1)C(=O)N[C@@H](CC(=O)O)C(=O)COc1c(F)cccc1F [QvD-OPH, reference compound]
quantity of apoptotic cells when co-administered with COMPOUND-JP [2]: markedly decreased the quantity of apoptotic cells

O=c1[nH]cc(F)c(=O)[nH]1 [5-FU, 5-fluorouracil]
combined effect with COM-JP on tumor growth ([3]; COM-JP and 5-FU in combination): additive
increase of the tumor, single administration ([3]; compared with untreated control group): more significant decrease

CC(C)C[C@H](NC(=O)[C@H](Cc1ccccc1)NC(=O)c1cnccn1)B(O)O [velcade, bortezomib, reference compound]
4EBP1 phosphorylation [4]: completely abolished
Akt phosphorylation (serine 473) / activation [4]: completely abolished
S6RP phosphorylation (mTORC1 activation) [4]: completely abolished
c-myc protein level [5]: Analogous observations
CHOP induction [6]: strongly induced

CC(=O)O[C@H]1C(=O)[C@@]2(C)[C@H]([C@H](OC(=O)c3ccccc3)[C@]3(O)C[C@H](OC(=O)[C@H](O)[C@@H](NC(=O)c4ccccc4)c4ccccc4)C(C)=C1C3(C)C)[C@]1(OC(C)=O)CO[C@@H]1C[C@@H]2O [paclitaxel]
inhibitory effect of combination with COM-JP (15 μM) [7]: additive effect
proliferation activity, agent used alone for 2 hours [7]: decreased in a dose-dependent manner
relative inhibitory effect of single agents [7]: stronger than that of gemstabine
inhibitory effect of combination with COM-JP (15 μM) [8]: additive effect
proliferation activity, agent used alone for 2 hours [8]: decreased in a dose-dependent manner
relative inhibitory effect of single agents [8]: stronger than that of gemstabine

CC(C)C[C@@H](N)C(=O)O [D-Leucine, D-leucine, reference compound]
viability at 30000 µM ([9]; 30.0 mM): 60%

NC1(C(=O)O)CC2CCC1C2 (centres unmarked) [BCH, 2-Aminobicyclo-(2,2,1)-heptane-2-carboxylic acid, reference compound]
viability at 10000 µM ([9]; 10.0 mM): 30%

[NH2][Pt]([NH2])([Cl])[Cl] [CDDP, cisplatin, reference compound]
efficacy on tumor growth, single administration ([10]; COM-JP i.p. 3.1, 12.5, 50 mg/kg/day 4 weeks, CDDP i.p. 2.5 mg/kg/day day 0, 6, 13): not recognized
efficacy of combination with COM-JP on tumor growth ([10]; Group 8: COM-JP 50 mg/kg/day i.p. plus CDDP 2.5 mg/kg/day): synergistic effect

Nc1ccn([C@@H]2O[C@H](CO)[C@@H](O)C2(F)F)c(=O)n1 [gemstabine, gemcitabine]
inhibitory effect of combination with COM-JP (15 μM) [7]: additive effect
proliferation activity, agent used alone for 2 hours [7]: decreased in a dose-dependent manner
inhibitory effect of combination with COM-JP (15 μM) [8]: additive effect
proliferation activity, agent used alone for 2 hours [8]: decreased in a dose-dependent manner
relative inhibitory effect of single agents [8]: extremely small

COc1ccc(-c2ccc3c(N4CCOCC4)nc(N4C[C@@H](C)O[C@@H](C)C4)nc3n2)cc1CO [KU0063794, rel-5-[2-[(2R,6S)-2,6-dimethyl-4-morpholinyl]-4-(4-morpholinyl)pyrido[2,3-d]pyrimidin-7-yl]-2-methoxybenzenemethanol, reference compound]
4EBP1 phosphorylation [4]: completely block
Akt phosphorylation (serine 473) / activation [4]: completely block
S6RP phosphorylation (mTORC1 activation) [4]: completely block
c-myc protein level [5]: slightly influenced the two lower bands
CHOP induction [6]: did not result in CHOP induction
combination effect with COMPOUND-JP on metabolic activity/cell survival (Combination Index) [1]: less efficient

NC1(c2ccc(-c3nc4ccn5c(=O)[nH]nc5c4cc3-c3ccccc3)cc2)CCC1 [MK-2206, reference compound]
4EBP1 phosphorylation [4]: completely block
Akt phosphorylation (serine 473) / activation [4]: completely block
S6RP phosphorylation (mTORC1 activation) [4]: completely block
c-myc protein level [5]: dramatic disappearance of all three c-myc isoforms
CHOP induction [6]: did not result in CHOP induction

B1: Erw: enzyme that can degrade extracellular asparagine, with higher glutaminase activity (protein, UniProt P06608 22-348, looked up)
L-asparaginase: ADKLPNIVILATGGTIAGSAATGTQTTGYKAGALGVDTLINAVPEVKKLANVKGEQFSNMASENMTGDVVLKLSQRVNELLARDDVDGVVITHGTDTVEESAYFLHLTVKSDKPVVFVAAMRPATAISADGPMNLLEAVRVAGDKQSRGRGVMVVLNDRIGSARYITKTNASTLDTFKANEEGYLGVIIGNRIYYQNRIDKLHTTRSVFDVRGLTSLPKVDILYGYQDDPEYLYDAAIQHGVKGIVYAGMGAGSVSVRGIAGMRKAMEKGVVVIRSTRTGNGIVPPDEELPGLVSDSLNPAHARILLMLALTRTSDPKVIQEYFHTY
4EBP1 phosphorylation [4]: altered 4EBP1 phosphorylation
Akt phosphorylation (serine 473) / activation [4]: did not significantly influence Akt phosphorylation
S6RP phosphorylation (mTORC1 activation) [4]: altered S6RP phosphorylation
CHOP expression, time course [6]: induced a transient response

B2: L-Asp: enzyme that can degrade extracellular asparagine and also possesses glutaminase activity (protein, UniProt P00805 23-348, looked up)
L-asparaginase 2: LPNITILATGGTIAGGGDSATKSNYTVGKVGVENLVNAVPQLKDIANVKGEQVVNIGSQDMNDNVWLTLAKKINTDCDKTDGFVITHGTDTMEETAYFLDLTVKCDKPVVMVGAMRPSTSMSADGPFNLYNAVVTAADKASANRGVLVVMNDTVLDGRDVTKTNTTDVATFKSVNYGPLGYIHNGKIDYQRTPARKHTSDTPFDVSKLNELPKVGIVYNYANASDLPAKALVDAGYDGIVSAGVGNGNLYKSVFDTLATAAKTGTAVVRSSRVPTGATTQDAEVDDAKYGFVASGTLNPQKARVLLQLALTQTKDPQQIQQIFNQY
4EBP1 phosphorylation [4]: altered 4EBP1 phosphorylation
Akt phosphorylation (serine 473) / activation [4]: did not significantly influence Akt phosphorylation
S6RP phosphorylation (mTORC1 activation) [4]: altered S6RP phosphorylation
CHOP expression, time course [6]: lower magnitude compared to COMPOUND-JP
combination effect with COMPOUND-JP on metabolic activity/cell survival (Combination Index) [1]: potentiate
